Data as given in article PMC7026418, “The kinase polypharmacology landscape of clinical PARP inhibitors” (Scientific Reports, 2020).
Read-outs that look alike come from different tables or passages of the source.

What was measured:
Experiment in all cases: biochemical
Design in all cases: DiscoveRx KINOMEscan active site-directed competition binding; percent of control kinase bound to immobilised ligand
[1] = target: GSK3A (Homo sapiens, UniProt P49840)
[2] = target: T1, IRAK4 (Homo sapiens, UniProt Q9NWZ3)
T1 sequence (Q9NWZ3 1-460): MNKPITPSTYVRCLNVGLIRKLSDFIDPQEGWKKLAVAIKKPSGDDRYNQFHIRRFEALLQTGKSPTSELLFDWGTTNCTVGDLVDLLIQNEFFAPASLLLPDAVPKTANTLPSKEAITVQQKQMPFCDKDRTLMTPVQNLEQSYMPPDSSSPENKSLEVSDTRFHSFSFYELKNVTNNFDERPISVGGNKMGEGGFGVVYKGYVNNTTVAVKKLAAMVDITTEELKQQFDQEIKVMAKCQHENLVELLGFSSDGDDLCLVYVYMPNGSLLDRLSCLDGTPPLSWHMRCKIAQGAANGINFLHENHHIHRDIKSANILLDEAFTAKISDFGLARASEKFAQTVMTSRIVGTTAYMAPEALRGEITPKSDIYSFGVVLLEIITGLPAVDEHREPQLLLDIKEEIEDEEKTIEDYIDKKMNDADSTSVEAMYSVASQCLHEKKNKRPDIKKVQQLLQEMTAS

[3] = target: T2, MLK3 (Homo sapiens, UniProt Q16584)
T2 construct: gene MAP3K11
T2 sequence (Q16584 whole entry): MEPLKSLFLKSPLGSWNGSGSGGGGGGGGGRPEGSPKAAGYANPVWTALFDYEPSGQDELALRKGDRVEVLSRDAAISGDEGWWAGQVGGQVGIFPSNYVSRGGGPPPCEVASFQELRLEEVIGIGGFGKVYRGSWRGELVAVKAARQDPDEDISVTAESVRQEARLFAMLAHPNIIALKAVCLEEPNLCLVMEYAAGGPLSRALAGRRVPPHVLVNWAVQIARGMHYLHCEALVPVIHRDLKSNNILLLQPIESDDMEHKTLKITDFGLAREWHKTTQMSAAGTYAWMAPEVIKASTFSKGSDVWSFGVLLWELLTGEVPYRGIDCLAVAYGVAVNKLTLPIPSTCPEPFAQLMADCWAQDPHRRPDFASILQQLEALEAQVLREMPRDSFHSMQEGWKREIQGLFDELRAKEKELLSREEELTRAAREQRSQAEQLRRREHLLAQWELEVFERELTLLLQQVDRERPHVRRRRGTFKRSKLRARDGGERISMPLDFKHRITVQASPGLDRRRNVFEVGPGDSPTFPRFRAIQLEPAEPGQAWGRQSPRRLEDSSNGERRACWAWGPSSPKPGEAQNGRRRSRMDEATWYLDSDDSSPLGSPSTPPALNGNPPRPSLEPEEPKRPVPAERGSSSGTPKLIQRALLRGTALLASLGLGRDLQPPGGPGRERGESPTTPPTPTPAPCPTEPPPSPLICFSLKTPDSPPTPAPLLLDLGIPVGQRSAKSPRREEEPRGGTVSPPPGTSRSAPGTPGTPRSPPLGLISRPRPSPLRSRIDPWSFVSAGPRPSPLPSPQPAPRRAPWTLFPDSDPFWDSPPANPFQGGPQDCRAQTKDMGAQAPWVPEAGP

[4] = target: EIF2AK1 (Homo sapiens, UniProt Q9BQI3)
Sequence of EIF2AK1 (Q9BQI3 whole entry): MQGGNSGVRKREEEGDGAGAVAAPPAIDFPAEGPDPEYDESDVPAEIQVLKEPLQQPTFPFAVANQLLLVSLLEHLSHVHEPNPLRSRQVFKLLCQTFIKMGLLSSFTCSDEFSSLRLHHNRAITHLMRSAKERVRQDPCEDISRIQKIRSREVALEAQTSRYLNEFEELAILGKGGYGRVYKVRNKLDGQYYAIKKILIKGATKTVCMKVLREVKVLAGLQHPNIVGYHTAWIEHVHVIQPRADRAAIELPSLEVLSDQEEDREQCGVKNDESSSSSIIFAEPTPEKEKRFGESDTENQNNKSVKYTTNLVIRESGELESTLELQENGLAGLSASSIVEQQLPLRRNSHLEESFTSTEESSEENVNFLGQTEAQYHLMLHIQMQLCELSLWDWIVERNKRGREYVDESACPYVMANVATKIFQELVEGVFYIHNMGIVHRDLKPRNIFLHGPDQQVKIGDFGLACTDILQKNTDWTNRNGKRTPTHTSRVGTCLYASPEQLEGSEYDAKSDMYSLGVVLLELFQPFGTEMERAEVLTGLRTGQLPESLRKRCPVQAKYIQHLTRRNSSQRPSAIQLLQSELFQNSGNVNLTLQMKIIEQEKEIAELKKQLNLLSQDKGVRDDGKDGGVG

[5] = target: T3, MUSK (Homo sapiens, UniProt O15146)
T3 sequence (O15146 1-869): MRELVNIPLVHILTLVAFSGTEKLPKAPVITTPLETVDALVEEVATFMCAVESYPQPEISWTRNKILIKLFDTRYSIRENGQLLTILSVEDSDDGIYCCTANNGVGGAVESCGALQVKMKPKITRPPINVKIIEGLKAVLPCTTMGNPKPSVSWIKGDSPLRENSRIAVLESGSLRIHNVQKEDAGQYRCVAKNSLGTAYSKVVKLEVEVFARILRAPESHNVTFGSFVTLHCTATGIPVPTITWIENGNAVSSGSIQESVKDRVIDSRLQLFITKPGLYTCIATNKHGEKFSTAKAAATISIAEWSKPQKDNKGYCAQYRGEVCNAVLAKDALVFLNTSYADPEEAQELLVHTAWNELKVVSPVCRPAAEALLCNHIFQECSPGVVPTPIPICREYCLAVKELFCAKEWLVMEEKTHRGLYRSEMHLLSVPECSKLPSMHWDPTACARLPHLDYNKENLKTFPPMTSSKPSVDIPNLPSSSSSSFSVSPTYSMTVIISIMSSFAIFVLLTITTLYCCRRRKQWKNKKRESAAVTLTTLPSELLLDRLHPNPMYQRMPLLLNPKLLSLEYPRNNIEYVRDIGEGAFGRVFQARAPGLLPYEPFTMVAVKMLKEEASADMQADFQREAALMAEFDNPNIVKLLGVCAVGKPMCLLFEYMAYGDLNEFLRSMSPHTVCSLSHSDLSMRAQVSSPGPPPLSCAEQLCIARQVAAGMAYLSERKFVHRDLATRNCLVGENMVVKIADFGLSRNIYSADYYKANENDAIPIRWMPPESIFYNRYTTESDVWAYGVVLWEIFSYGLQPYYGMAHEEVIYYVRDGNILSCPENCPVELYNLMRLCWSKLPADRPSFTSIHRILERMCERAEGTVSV

[6] = target: DAPK3 (Homo sapiens, UniProt O43293)
Sequence of DAPK3 (O43293 whole entry): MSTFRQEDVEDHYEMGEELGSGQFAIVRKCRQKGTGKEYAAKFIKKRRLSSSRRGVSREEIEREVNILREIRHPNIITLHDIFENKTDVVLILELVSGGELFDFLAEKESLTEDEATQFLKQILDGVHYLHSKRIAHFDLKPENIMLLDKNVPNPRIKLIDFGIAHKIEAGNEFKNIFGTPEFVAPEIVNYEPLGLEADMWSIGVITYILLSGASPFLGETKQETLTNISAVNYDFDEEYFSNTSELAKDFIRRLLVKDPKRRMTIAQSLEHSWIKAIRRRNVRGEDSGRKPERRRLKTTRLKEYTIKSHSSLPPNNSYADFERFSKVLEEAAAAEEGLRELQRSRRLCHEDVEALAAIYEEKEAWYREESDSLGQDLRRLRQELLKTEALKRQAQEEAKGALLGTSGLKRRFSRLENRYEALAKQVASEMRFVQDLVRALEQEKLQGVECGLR

[7] = target: IRAK1 (Homo sapiens, UniProt P51617)
[8] = target: T4, NIK (Homo sapiens, UniProt Q99558)
T4 construct: gene MAP3K14
T4 sequence (Q99558 whole entry): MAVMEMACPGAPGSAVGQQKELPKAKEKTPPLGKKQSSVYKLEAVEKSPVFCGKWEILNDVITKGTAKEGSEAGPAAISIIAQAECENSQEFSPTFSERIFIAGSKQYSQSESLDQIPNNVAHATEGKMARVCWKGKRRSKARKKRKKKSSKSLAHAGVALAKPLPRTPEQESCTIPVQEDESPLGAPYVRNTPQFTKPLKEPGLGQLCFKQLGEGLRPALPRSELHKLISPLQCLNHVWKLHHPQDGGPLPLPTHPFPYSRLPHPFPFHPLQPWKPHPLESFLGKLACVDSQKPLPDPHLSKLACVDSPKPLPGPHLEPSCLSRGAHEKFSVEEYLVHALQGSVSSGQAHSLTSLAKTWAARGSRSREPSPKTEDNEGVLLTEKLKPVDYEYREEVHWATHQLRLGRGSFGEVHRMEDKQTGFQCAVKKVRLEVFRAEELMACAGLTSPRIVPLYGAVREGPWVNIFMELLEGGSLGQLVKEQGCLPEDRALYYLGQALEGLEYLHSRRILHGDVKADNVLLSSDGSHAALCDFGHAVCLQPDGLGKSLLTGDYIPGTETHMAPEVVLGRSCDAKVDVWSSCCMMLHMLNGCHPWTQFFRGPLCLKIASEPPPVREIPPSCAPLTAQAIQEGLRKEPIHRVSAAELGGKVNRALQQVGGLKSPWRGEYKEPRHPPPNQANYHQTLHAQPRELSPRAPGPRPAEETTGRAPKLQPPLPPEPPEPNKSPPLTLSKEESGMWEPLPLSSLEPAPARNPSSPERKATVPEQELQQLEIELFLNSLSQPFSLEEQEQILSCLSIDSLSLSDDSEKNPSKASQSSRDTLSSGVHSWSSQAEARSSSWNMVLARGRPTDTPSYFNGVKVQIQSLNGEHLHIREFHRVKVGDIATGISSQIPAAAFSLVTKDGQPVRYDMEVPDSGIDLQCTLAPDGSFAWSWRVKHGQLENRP

[9] = target: CDK3 (Homo sapiens, UniProt Q00526)
Sequence of CDK3 (Q00526 whole entry): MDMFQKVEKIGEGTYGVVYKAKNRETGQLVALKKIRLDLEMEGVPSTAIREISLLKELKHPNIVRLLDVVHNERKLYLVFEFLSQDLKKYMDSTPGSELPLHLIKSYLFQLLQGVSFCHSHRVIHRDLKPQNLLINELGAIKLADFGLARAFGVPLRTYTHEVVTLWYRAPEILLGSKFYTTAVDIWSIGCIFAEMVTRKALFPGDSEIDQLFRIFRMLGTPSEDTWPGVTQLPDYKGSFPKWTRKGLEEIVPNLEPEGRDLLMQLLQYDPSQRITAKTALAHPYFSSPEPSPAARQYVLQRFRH

[10] = target: PIK3CA(I800L) (Homo sapiens, UniProt P42336, I800L)
[11] = target: CDK5 (Homo sapiens, UniProt Q00535)
Sequence of CDK5 (Q00535 whole entry): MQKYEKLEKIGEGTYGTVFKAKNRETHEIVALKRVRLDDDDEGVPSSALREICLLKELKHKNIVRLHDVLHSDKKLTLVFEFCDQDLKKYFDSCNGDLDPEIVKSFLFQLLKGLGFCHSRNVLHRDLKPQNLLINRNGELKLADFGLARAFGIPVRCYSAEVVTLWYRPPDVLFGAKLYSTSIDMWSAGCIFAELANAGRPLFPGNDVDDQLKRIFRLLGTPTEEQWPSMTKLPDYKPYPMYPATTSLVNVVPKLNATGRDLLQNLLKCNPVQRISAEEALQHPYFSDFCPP

[12] = target: SRMS (Homo sapiens, UniProt Q9H3Y6)
[13] = target: T5, LOK (Homo sapiens, UniProt O94804)
T5 construct: gene STK10
T5 sequence (O94804 whole entry): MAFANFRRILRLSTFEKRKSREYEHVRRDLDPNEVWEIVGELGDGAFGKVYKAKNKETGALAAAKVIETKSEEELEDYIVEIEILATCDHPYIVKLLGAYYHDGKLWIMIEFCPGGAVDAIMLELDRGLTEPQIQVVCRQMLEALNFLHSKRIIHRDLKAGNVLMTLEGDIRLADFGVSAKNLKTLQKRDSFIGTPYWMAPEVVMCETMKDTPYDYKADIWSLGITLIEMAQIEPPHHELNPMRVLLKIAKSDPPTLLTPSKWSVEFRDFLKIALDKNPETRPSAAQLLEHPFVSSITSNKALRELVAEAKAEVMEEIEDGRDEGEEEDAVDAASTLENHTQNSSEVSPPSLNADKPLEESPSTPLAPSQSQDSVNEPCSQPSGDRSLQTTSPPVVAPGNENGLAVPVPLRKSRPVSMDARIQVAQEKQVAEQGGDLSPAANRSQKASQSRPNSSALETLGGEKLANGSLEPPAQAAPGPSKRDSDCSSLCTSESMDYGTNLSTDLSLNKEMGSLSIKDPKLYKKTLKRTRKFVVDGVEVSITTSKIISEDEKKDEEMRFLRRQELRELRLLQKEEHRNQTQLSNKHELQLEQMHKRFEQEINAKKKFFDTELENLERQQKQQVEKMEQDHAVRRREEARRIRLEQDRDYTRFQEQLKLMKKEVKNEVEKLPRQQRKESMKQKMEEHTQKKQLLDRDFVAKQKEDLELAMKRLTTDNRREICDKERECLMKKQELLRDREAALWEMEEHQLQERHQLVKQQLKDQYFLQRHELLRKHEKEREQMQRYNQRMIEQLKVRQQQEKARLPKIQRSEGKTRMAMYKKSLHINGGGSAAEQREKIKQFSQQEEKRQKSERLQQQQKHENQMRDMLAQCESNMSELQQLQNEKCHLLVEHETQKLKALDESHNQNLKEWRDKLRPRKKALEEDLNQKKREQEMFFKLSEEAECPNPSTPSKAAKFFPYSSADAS

[14] = target: T6, RPS6KA5(Kin.Dom.1-N-terminal) (Homo sapiens, UniProt O75582)
T6 construct: Kin.Dom.1-N-terminal

[15] = read-out: Talazoparib (BMN 673) / %Ctrl @ 10000nM
[16] = read-out: Olaparib / %Ctrl @ 10000nM
[17] = read-out: Rucaparib / %Ctrl @ 10000nM, binding competition, % of control
[18] = read-out: Niraparib (MK-4827) / %Ctrl @ 10000nM

Sequence of GSK3A (P49840 whole entry): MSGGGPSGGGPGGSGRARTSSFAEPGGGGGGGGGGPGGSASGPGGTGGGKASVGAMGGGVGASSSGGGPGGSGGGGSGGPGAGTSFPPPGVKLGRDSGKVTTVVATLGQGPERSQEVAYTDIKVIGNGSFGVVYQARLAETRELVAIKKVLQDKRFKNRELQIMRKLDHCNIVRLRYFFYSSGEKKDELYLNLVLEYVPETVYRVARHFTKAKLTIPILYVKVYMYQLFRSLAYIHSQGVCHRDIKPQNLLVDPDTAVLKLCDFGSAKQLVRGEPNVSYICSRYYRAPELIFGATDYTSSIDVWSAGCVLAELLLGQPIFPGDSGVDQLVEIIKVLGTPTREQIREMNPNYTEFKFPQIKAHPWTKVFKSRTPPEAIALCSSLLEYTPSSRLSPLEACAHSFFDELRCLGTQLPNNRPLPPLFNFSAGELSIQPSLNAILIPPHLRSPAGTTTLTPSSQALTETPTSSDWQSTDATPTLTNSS

Work on Cn1ncnc1[C@H]1c2n[nH]c(=O)c3cc(F)cc(c23)N[C@@H]1c1ccc(F)cc1 [Talazoparib] yielded a percent of control binding at 10 µM [1, 15] of 100%, a percent of control binding at 10 µM [2, 15] of 85% and a percent of control binding at 10 µM [3, 15] of 70%. It also gave a percent of control binding at 10 µM [4, 15] of 100%, a percent of control binding at 10 µM [5, 15] of 100% and a percent of control binding at 10 µM [6, 15] of 87%. It also gave a percent of control binding at 10 µM [7, 15] of 88%, a percent of control binding at 10 µM [8, 15] of 100% and a percent of control binding at 10 µM [9, 15] of 100%. It also gave a percent of control binding at 10 µM [10, 15] of 71%, a percent of control binding at 10 µM [11, 15] of 98% and a percent of control binding at 10 µM [12, 15] of 100%. For the same compound, the percent of control binding at 10 µM [13, 15] was 100% and the percent of control binding at 10 µM [14, 15] was 98%.

For O=C(c1cc(Cc2n[nH]c(=O)c3ccccc23)ccc1F)N1CCN(C(=O)C2CC2)CC1 [Olaparib], the percent of control binding at 10 µM [1, 16] was 95%, the percent of control binding at 10 µM [2, 16] was 88% and the percent of control binding at 10 µM [3, 16] was 100%. It also gave a percent of control binding at 10 µM [4, 16] of 83%, a percent of control binding at 10 µM [5, 16] of 100% and a percent of control binding at 10 µM [6, 16] of 93%. It also gave a percent of control binding at 10 µM [7, 16] of 82%, a percent of control binding at 10 µM [8, 16] of 89% and a percent of control binding at 10 µM [9, 16] of 100%. It also gave a percent of control binding at 10 µM [10, 16] of 80%, a percent of control binding at 10 µM [11, 16] of 95% and a percent of control binding at 10 µM [12, 16] of 92%. It also gave a percent of control binding at 10 µM [13, 16] of 96% and a percent of control binding at 10 µM [14, 16] of 94%.

For CNCc1ccc(-c2[nH]c3cc(F)cc4c3c2CCNC4=O)cc1 [Rucaparib], the percent of control binding at 10 µM [1, 17] was 21%, the percent of control binding at 10 µM [2, 17] was 81% and the percent of control binding at 10 µM [3, 17] was 92%. For the same compound, the percent of control binding at 10 µM [4, 17] was 72%, the percent of control binding at 10 µM [5, 17] was 96% and the percent of control binding at 10 µM [6, 17] was 24%. The percent of control binding at 10 µM [7, 17] was 19%, the percent of control binding at 10 µM [8, 17] was 74% and the percent of control binding at 10 µM [9, 17] was 94%. The percent of control binding at 10 µM [10, 17] was 66%, the percent of control binding at 10 µM [11, 17] was 88% and the percent of control binding at 10 µM [12, 17] was 79%. For the same compound, the percent of control binding at 10 µM [13, 17] was 100% and the percent of control binding at 10 µM [14, 17] was 100%.

Compound NC(=O)c1cccc2cn(-c3ccc([C@@H]4CCCNC4)cc3)nc12 [Niraparib] has a percent of control binding at 10 µM [1, 18] of 48%, a percent of control binding at 10 µM [2, 18] of 99% and a percent of control binding at 10 µM [3, 18] of 84%. It also gave a percent of control binding at 10 µM [4, 18] of 93%, a percent of control binding at 10 µM [5, 18] of 82% and a percent of control binding at 10 µM [6, 18] of 69%. The percent of control binding at 10 µM [7, 18] was 18%, the percent of control binding at 10 µM [8, 18] was 100% and the percent of control binding at 10 µM [9, 18] was 95%. For the same compound, the percent of control binding at 10 µM [10, 18] was 38%, the percent of control binding at 10 µM [11, 18] was 90% and the percent of control binding at 10 µM [12, 18] was 100%. For the same compound, the percent of control binding at 10 µM [13, 18] was 86% and the percent of control binding at 10 µM [14, 18] was 99%.
